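All cell lines were grown in 96-well plates and treated with compound for 48 hours. The concentration for 50% growth inhibition is given as GI50.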 The source made the active and inactive calls. Rule as the data show it: active = GI50 up to about 1.1 µM and inactive = higher.
Key:
Assay in all cases: NCI-60 cell line screen, 48 h
SK-MEL-28 = test system: SK-MEL-28
SK-MEL-2 = test system: SK-MEL-2
HCT-15 = test system: HCT-15
OVCAR-8 = test system: OVCAR-8
SW-620 = test system: SW-620
NCI-H226 = test system: NCI-H226
RXF 393 = test system: RXF 393
OVCAR-4 = test system: OVCAR-4
OVCAR-5 = test system: OVCAR-5
RPMI-8226 = test system: RPMI-8226
COLO 205 = test system: COLO 205
HCT-116 = test system: HCT-116
SF-295 = test system: SF-295
CCRF-CEM = test system: CCRF-CEM
HOP-62 = test system: HOP-62
SR = test system: SR

| SMILES | GI50 (SK-MEL-28) | GI50 (SK-MEL-2) | GI50 (HCT-15) | GI50 (OVCAR-8) | GI50 (SW-620) | GI50 (NCI-H226) | GI50 (RXF 393) | GI50 (OVCAR-4) | GI50 (OVCAR-5) | GI50 (RPMI-8226) | GI50 (COLO 205) | GI50 (HCT-116) | GI50 (SF-295) | GI50 (CCRF-CEM) | GI50 (HOP-62) | GI50 (SR) |
| --- | --- | --- | --- | --- | --- | --- | --- | --- | --- | --- | --- | --- | --- | --- | --- | --- |
| O=C(/C=C/c1ccccc1O)c1ccccc1O | > 100 µM (inactive) | 80.9 µM (inactive) | 35.9 µM | > 100 µM (inactive) | > 100 µM (inactive) | 58.9 µM (inactive) | > 100 µM (inactive) | > 100 µM (inactive) | > 100 µM (inactive) | 40 µM (inactive) | > 100 µM (inactive) | 78 µM (inactive) | 51.6 µM (inactive) | 5.74 µM (inactive) | > 100 µM (inactive) |  |
| COC(=O)C[C@H]1CCC2(OCCO2)[C@]1(C)C(=O)OC | > 100 µM (inactive) | > 100 µM (inactive) | > 100 µM | > 100 µM (inactive) | > 100 µM (inactive) |  | > 100 µM (inactive) | > 100 µM (inactive) | > 100 µM (inactive) | > 100 µM (inactive) | > 100 µM (inactive) | > 100 µM (inactive) | > 100 µM (inactive) | > 100 µM (inactive) | > 100 µM (inactive) |  |
| CN(C)CCC(=O)/C=C\c1ccccc1 | 16.9 µM (inactive) |  | 16.1 µM | 18.1 µM (inactive) | 18.5 µM (inactive) | 23 µM (inactive) | 15.6 µM (inactive) | 19.1 µM (inactive) | 20.9 µM (inactive) | 14.6 µM (inactive) | 15.8 µM (inactive) | 15.3 µM (inactive) | 20.3 µM (inactive) | 4.06 µM (inactive) | 67.3 µM (inactive) | 15 µM (inactive) |
| CC(C)(CN1CCCCC1)C(=O)/C=C/c1ccc(Br)cc1 | 3.99 µM (inactive) | 3.69 µM (inactive) |  | 2.39 µM (inactive) | 2.56 µM (inactive) | 5.78 µM (inactive) | 1.35 µM (inactive) | 4.31 µM (inactive) | 2.78 µM (inactive) | 3.07 µM (inactive) | 2.25 µM (inactive) | 2.77 µM (inactive) | 5.09 µM (inactive) | 2.77 µM (inactive) | 3.85 µM (inactive) | 2.45 µM (inactive) |
| COc1ccc(NC(=O)/C(Cc2nc3ccccc3nc2O)=N\O)c(OC)c1 | > 100 µM (inactive) |  | > 100 µM | > 100 µM (inactive) | > 100 µM (inactive) | > 100 µM (inactive) | > 100 µM (inactive) | > 100 µM (inactive) | > 100 µM (inactive) | > 100 µM (inactive) | > 100 µM (inactive) | > 100 µM (inactive) | > 100 µM (inactive) | > 100 µM (inactive) | > 100 µM (inactive) | > 100 µM (inactive) |
| COc1ccc([C@@H]2CC(=O)NCCCCNCCCN2)cc1 | > 100 µM (inactive) | > 100 µM (inactive) | > 100 µM | > 100 µM (inactive) | > 100 µM (inactive) | > 100 µM (inactive) | > 100 µM (inactive) | > 100 µM (inactive) | > 100 µM (inactive) | > 100 µM (inactive) | > 100 µM (inactive) | > 100 µM (inactive) | > 100 µM (inactive) | > 100 µM (inactive) | > 100 µM (inactive) | > 100 µM (inactive) |
| CC1(C)OC2C(CCP(=O)(O)O)OC(c3nc(C(N)=O)cs3)C2O1 (stereo unspecified) | > 100 µM (inactive) | > 100 µM (inactive) | > 100 µM | > 100 µM (inactive) | > 100 µM (inactive) | > 100 µM (inactive) | > 100 µM (inactive) | > 100 µM (inactive) | > 100 µM (inactive) | > 100 µM (inactive) | > 100 µM (inactive) | > 100 µM (inactive) |  | > 100 µM (inactive) |  |  |
| CCN(CC)CCCCC1CCN(CC(=O)N2c3ccccc3NC(=O)CC2C)CC1 (stereo unspecified) | > 100 µM (inactive) | > 100 µM (inactive) | > 100 µM | > 100 µM (inactive) | > 100 µM (inactive) | > 100 µM (inactive) | 76.7 µM (inactive) | > 100 µM (inactive) | > 100 µM (inactive) | 88.1 µM (inactive) | > 100 µM (inactive) | > 100 µM (inactive) | > 100 µM (inactive) | 65.8 µM (inactive) | > 100 µM (inactive) | 56.6 µM (inactive) |
| CCCCCCCCCCCCCC(=O)OCC1OC(n2cc(F)c(=O)[nH]c2=O)C(N)C(OC(=O)CCCCCCCCCCCCC)C1O (stereo unspecified) | > 100 µM (inactive) | > 100 µM (inactive) | > 100 µM | > 100 µM (inactive) | > 100 µM (inactive) |  | > 100 µM (inactive) | > 100 µM (inactive) |  | > 100 µM (inactive) | > 100 µM (inactive) | > 100 µM (inactive) | > 100 µM (inactive) | > 10 µM (inactive) | > 100 µM (inactive) | > 100 µM (inactive) |
| C=C(CS(=O)(=O)c1ccccc1)C(=O)OCC | 15.1 µM (inactive) | 15.6 µM (inactive) | 12.6 µM | 10.5 µM (inactive) | 10.5 µM (inactive) | 25.1 µM (inactive) | 11.7 µM (inactive) |  | 19.6 µM (inactive) |  | 18.9 µM (inactive) | 13.4 µM (inactive) | 18.1 µM (inactive) | 2.77 µM (inactive) |  |  |
| CC1=NN(C(=O)CC(=O)N(C(=O)c2ccccc2Cl)c2ccc(C)cc2)C(=O)C1/N=N/c1ccc([N+](=O)[O-])cc1 (stereo unspecified) | > 100 µM (inactive) | > 100 µM (inactive) | > 43.8 µM | 27.9 µM (inactive) | > 39.2 µM (inactive) | > 76 µM (inactive) | 23.4 µM (inactive) | 67.9 µM (inactive) | > 46.1 µM (inactive) | > 50.4 µM (inactive) | > 43.6 µM (inactive) | 17.7 µM (inactive) | 58.5 µM (inactive) | > 49.8 µM (inactive) | 53.5 µM (inactive) | > 100 µM (inactive) |
| O=C(Cc1ccccc1)NN1C(=O)C(Cl)C1c1cc(Br)ccc1O (stereo unspecified) | 3.94 µM (inactive) | 3.05 µM (inactive) | 3.65 µM | 3.87 µM (inactive) | 4.11 µM (inactive) | 30 µM (inactive) | 19.1 µM (inactive) | 2.21 µM (inactive) | 5.57 µM (inactive) | 3.72 µM (inactive) | 14.1 µM (inactive) | 3.83 µM (inactive) | 6.19 µM (inactive) | 0.755 µM (active) | 2.65 µM (inactive) | 1.56 µM (inactive) |
| Cc1nc2sccn2c1C(=O)N/N=C1\SCC(=O)N1C | > 100 µM (inactive) | > 100 µM (inactive) | > 100 µM | > 100 µM (inactive) | > 100 µM (inactive) | > 100 µM (inactive) | > 100 µM (inactive) |  | > 100 µM (inactive) | > 100 µM (inactive) | > 100 µM (inactive) | > 100 µM (inactive) | > 100 µM (inactive) | > 100 µM (inactive) | > 100 µM (inactive) | > 100 µM (inactive) |
| O=C(O)CCCSC(=O)Nc1ccc(/N=N/c2ccccc2)cc1 | > 100 µM (inactive) | > 100 µM (inactive) | > 100 µM | > 100 µM (inactive) | > 100 µM (inactive) | > 100 µM (inactive) | > 100 µM (inactive) | > 100 µM (inactive) | > 100 µM (inactive) | > 100 µM (inactive) | > 100 µM (inactive) | > 100 µM (inactive) | > 100 µM (inactive) | 31.7 µM (inactive) | > 100 µM (inactive) | > 100 µM (inactive) |
| Cc1cc(C)c2[s+]snc2c1 | 62.1 µM (inactive) | 75 µM (inactive) |  | 33.7 µM (inactive) | 37.6 µM (inactive) | > 100 µM (inactive) | 37.4 µM (inactive) | > 100 µM (inactive) | > 100 µM (inactive) |  | > 100 µM (inactive) | 39.3 µM (inactive) | > 100 µM (inactive) | 28.5 µM (inactive) | 82.4 µM (inactive) | 23.8 µM (inactive) |
| Cc1cc(-c2ccccc2)cc2[n+]1CC=C2.[O-][Cl+3]([O-])([O-])[O-] | > 100 µM (inactive) | > 100 µM (inactive) |  | > 100 µM (inactive) | > 100 µM (inactive) | 45.6 µM (inactive) | 46.1 µM (inactive) | > 100 µM (inactive) | > 100 µM (inactive) |  | > 100 µM (inactive) | > 100 µM (inactive) | > 100 µM (inactive) |  | > 100 µM (inactive) |  |
| Oc1ccccc1-c1cnnc(-c2ccccc2O)c1 | 35.6 µM (inactive) | 20.5 µM (inactive) |  | 22.6 µM (inactive) | 37.7 µM (inactive) | 42 µM (inactive) | 20.3 µM (inactive) | 29.9 µM (inactive) | 28.6 µM (inactive) | 16.7 µM (inactive) | 22 µM (inactive) | 20.1 µM (inactive) |  | 13.4 µM (inactive) |  | 19 µM (inactive) |
| CCOP(=O)(OCC)/C(C#N)=C\c1ccsc1 | > 100 µM (inactive) | > 100 µM (inactive) | > 100 µM | > 100 µM (inactive) | > 100 µM (inactive) | > 100 µM (inactive) | > 100 µM (inactive) | > 100 µM (inactive) | > 100 µM (inactive) | > 100 µM (inactive) | > 100 µM (inactive) | > 100 µM (inactive) | > 100 µM (inactive) |  | > 100 µM (inactive) |  |
| CC(=O)O[C@H]1C(=O)[C@@]2(C)C(C(OC(=O)c3ccccc3)C3[C@@H](O)C(OC(=O)[C@@H](O)[C@H](NC(=O)c4ccccc4)c4ccc(C(F)(F)F)cc4)C(C)=C1C3(C)C)[C@]1(OC(C)=O)CO[C@@H]1C[C@@H]2O (stereo partly specified) | > 25 µM (inactive) | > 25 µM (inactive) | > 25 µM | > 25 µM (inactive) | 8 µM (inactive) | > 25 µM (inactive) | 14.3 µM (inactive) |  | > 25 µM (inactive) | 10.3 µM (inactive) | 9.55 µM (inactive) | 9.1 µM (inactive) | > 25 µM (inactive) | 18.2 µM (inactive) | > 25 µM (inactive) | 8.43 µM (inactive) |

Reference: ChEMBL document CHEMBL1201862, “PubChem BioAssay data set” (2004)
